Results published in PMC4234447 (Journal of Medicinal Chemistry, 2014).

Tests used:
BRD4 = BRD4 (Homo sapiens, UniProt O60885); experiment: AlphaScreen BRD binding assay; settings: calculated from BRD4 potency
797 cell line = experiment: Cell viability assay; format: cell-based; settings: read-out: 797 cellular EC50 (cellular potency)

Structure (SMILES): Cc1noc(C)c1-c1ccc(C=O)cc1 [Compound 8]
- ligand efficiency (as defined by Hopkins et al.) (BRD4): 0.54

Structure (SMILES): Cc1sc2c(c1C)C(c1ccc(Cl)cc1)=N[C@@H](CC(=O)OC(C)(C)C)c1nnc(C)n1-2 [Compound 1]
- EC50 (797 cell line): 71.7 nM
